This note sets out measurements from patent US6699681B2, “Endothelin converting enzymes and the amyloid β peptide” (Mayo Foundation for Medical Education and Research, priority 2000, dated 2004).

For test [1], the system named is Aβ concentration in plasma. Description: Treatment of guinea pigs with phosphoramidon, plasma Aβ by sandwich ELISA. The test is classed as in vivo, guinea pig. The settings on record: guinea pigs treated intravenously. The method, then:
Animal experiments were conducted within the United States Department of Agriculture (USDA) and the National Institute of Health (NIH) guidelines for animal use and care. To prevent clotting and to facilitate the collection of plasma, each animal was given 100 USP units/kg heparin sodium salt (Sigma, St. Louis, Mo.) administered intraperitoneally (IP) prior to experimentation. Animals were anesthetized with a single IP injection of 0.9 mg/kg acepromazine maleate (Fermenta, Kansas City, Mo.) combined with 90 mg/kg Ketaset (Fort Dodge Laboratories, Fort Dodge, Iowa). […] During the entire operation, the animal's temperature was periodically monitored and anesthesia maintained by further intraperitoneal injections as necessary. […] Data was obtained from at least 2 animals, with the Aβ in each sample measured at least twice.
Human and guinea pig Aβ40 or Aβ42 was measured in plasma by sandwich ELISA as previously described (Suzuki et al., 1994, Science, 264:1336-1340) using the BAN-50/BA-27 or BAN-50/BC-05 antibody systems, respectively (Takeda; Japan). Hamster Aβ40- or Aβ42-derived from CHO cells was measured using the BNT-77/BA-27 or BNT-77/BC-05 antibody systems, respectively. Aβ concentration in samples was determined by comparison to synthetic Aβ40 or Aβ42 standards (Bachem, Switzerland). […]
In general terms: ELISA stands for enzyme-linked immunosorbent assay.

Another test addresses T1, SolECE-1 (Homo sapiens, UniProt P42892).
T1 construct: a recombinant soluble form of ECE was generated (SolECE-1); made in house
T1 sequence (P42892 90-770 limits assumed): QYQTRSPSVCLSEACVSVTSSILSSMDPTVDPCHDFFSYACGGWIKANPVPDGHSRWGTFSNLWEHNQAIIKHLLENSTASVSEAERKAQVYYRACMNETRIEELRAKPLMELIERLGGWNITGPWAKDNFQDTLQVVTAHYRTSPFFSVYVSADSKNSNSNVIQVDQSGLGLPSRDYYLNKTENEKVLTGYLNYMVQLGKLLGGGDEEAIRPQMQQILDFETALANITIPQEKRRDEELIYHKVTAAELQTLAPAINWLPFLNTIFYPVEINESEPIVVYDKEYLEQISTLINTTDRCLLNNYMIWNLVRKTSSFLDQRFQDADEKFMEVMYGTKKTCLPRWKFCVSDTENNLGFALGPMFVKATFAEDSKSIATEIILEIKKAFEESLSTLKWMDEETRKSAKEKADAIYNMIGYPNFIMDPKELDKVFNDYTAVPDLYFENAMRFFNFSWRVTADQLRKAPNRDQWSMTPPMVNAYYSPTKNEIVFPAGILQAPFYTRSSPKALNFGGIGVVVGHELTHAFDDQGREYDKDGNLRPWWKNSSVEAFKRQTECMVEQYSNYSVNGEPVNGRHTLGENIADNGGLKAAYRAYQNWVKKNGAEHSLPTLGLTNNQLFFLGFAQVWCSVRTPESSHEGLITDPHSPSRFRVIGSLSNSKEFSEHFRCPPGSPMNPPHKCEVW
Description: Inhibition of Aβ degradation by SolECE-1, sandwich ELISA. The test is classed as biochemical. The conditions noted are these: inhibitor pre-incubated 15 min; phosphoramidon 150 μM; 24 hrs at 37° C.

Description for SolECE-1: SolECE-1 (approximately 0.2 μM) was pre-incubated for 15 min at room temperature with the ECE inhibitors PD069185 (synthesized according to published methods (Ahn et al., 1998, Biochem. Biophys. Res. Comm., 243:184-190) by the Mayo Clinic Organic Chemistry Core Facility, Jacksonville, Fla.) or phosphoramidon (150 μM), or an equal volume of vehicle (DMSO or PBS, respectively) prior to incubation with synthetic Aβ40 or Aβ42 (0.01 μM) in 50 mM MES (pH 6.5) containing 0.01% C12E10, 1 mM PMSF, 100 μM leupeptin, and 20 μM pepstatin. As a control, Aβ was incubated with Ni-NTA purified proteins from non-transfected CHO cells, or in reaction buffer alone. Following incubation for 24 hrs at 37° C., the reactions were stopped by the addition of 5 mM EDTA. Aβ concentration was then analyzed using a highly specific sandwich ELISA that captures Aβ via binding of antibody BAN-50 to the N-terminus, and detects only full-length Aβ peptides ending at residue 40 (using antibody BA-27) or 42 (using antibody BC-05). Thus, Aβ that has been further hydrolyzed will not be detected using this assay.

On to `CC(C)C[C@H](NP(=O)(O)O[C@@H]1O[C@@H](C)[C@H](O)[C@@H](O)[C@H]1O)C(=O)N[C@@H](Cc1c[nH]c2ccccc12)C(=O)O` [phosphoramidon], for which the “Aβ concentration in the plasma” value in test [1] was “dose-dependent, rapid increase”. For the same molecule, the “block of the SolECE-1-induced reduction of Aβ40 and Aβ42” value on SolECE-1 is “completely blocked”.
